In US20210186960A1, “MODULATORS OF INDOLEAMINE 2,3-DIOXYGENASE” (GLAXOSMITHKLINE INTELLECTUAL PROPERTY DEVELOPMENT LIMITED, priority 2017, published 2021):

System: human peripheral blood mononuclear cells (PBMC)
Experiment: PBMC cytotoxicity assay (CellTiter-Glo)
Format: cell-based
Details: pCC50, CellTiter-Glo, stimulated human PBMC, 2 days
Method: Compounds of the present invention were tested via high-throughput cellular assays utilizing detection of kynurenine via mass spectrometry and cytotoxicity as end-points. For the mass spectrometry and cytotoxicity assays, human peripheral blood mononuclear cells (PBMC) (PB003F; AllCells®, Alameda, Calif.) were stimulated with human interferon-γ (IFN-γ) (Sigma-Aldrich Corporation, St. Louis, Mo.) and lipopolysaccharide from Salmonella minnesota (LPS) (Invivogen, San Diego, Calif.) to induce the expression of indoleamine 2, 3-dioxygenase (IDO1). Compounds with IDO1 inhibitory properties decreased the amount of kynurenine produced by the cells via the tryptophan catabolic pathway. Cellular toxicity due to the effect of compound treatment was measured using CellTiter-Glo® reagent (CTG) (Promega Corporation, Madison, Wis.), which is based on luminescent detection of ATP, an indicator of metabolically active cells.
In preparation for the assays, test compounds were serially diluted 3-fold in
DMSO from a typical top concentration of 1 mM or 5 mM and plated at 0.5 μL in 384-well, polystyrene, clear bottom, tissue culture treated plates with lids (Greiner Bio-One, Kremsmünster, Austria) to generate 11-point dose response curves. Low control wells (0% kynurenine or 100% cytotoxicity) contained either 0.5 μL of DMSO in the presence of unstimulated (−IFN-γ/−LPS) PBMCs for the mass spectrometry assay or 0.5 μL of DMSO in the absence of cells for the cytotoxicity assay, and high control wells (100% kynurenine or 0% cytotoxicity) contained 0.5 μL of DMSO in the presence of stimulated (+IFN-γ/+LPS) PBMCs for both the mass spectrometry and cytotoxicity assays.
Frozen stocks of PBMCs were washed and recovered in RPMI 1640 medium (Thermo Fisher Scientific, Inc., Waltham, Mass.) supplemented with 10% v/v heat-inactivated fetal bovine serum (FBS) (Thermo Fisher Scientific, Inc., Waltham, Mass.), and 1× penicillin-streptomycin antibiotic solution (Thermo Fisher Scientific, Inc., Waltham, Mass.). The cells were diluted to 1,000,000 cells/mL in the supplemented RPMI 1640 medium. 50 μL of either the cell suspension, for the mass spectrometry assay, or medium alone, for the cytotoxicity assay, were added to the low control wells, on the previously prepared 384-well compound plates, resulting in 50,000 cells/well or 0 cells/well respectively. IFN- y and LPS were added to the remaining cell suspension at final concentrations of 100 ng/ml and 50 ng/ml respectively, and 50 μL of the stimulated cells were added to all remaining wells on the 384-well compound plates. The plates, with lids, were then placed in a 37 °C, 5% CO2 humidified incubator for 2 days.
Following incubation, the 384-well plates were removed from the incubator and allowed to equilibrate to room temperature for 30 minutes. For the cytotoxicity assay, CellTiter-Glo® was prepared according to the manufacturer's instructions, and 40 μL were added to each plate well. After a twenty minute incubation at room temperature, luminescence was read on an EnVision® Multilabel Reader (Perkin Elmer Inc., Waltham, Mass.). For the mass spectrometry assay, 10 μL of supernatant from each well of the compound-treated plates were added to 40 μL of acetonitrile, containing 10 μM of an internal standard for normalization, in 384-well, polypropylene, V-bottom plates (Greiner Bio-One, Kremsmunster, Austria) to extract the organic analytes. Following centrifugation at 2000 rpm for 10 minutes, 10 μL from each well of the acetonitrile extraction plates were added to 90 μL of sterile, distilled H2O in 384-well, polypropylene, V-bottom plates for analysis of kynurenine and the internal standard on the RapidFire 300 (Agilent Technologies, Santa Clara, Calif.) and 4000 QTRAP MS (SCIEX, Framingham, Mass.). MS data were integrated using Agilent Technologies' RapidFire Integrator software, and data were normalized for analysis as a ratio of kynurenine to the internal standard. […]

For CC(C)CN(c1ccc([C@H](C)CC(=O)O)cc1Nc1cnc(Cl)cn1)C1CCOCC1 [intermediate C4], the “PBMC TOX PXC50” value was less than 5.
